Test results as given in ChEMBL document CHEMBL5325468, “Scaffold hopping derived novel benzoxazepinone RIPK1 inhibitors as anti-necroptosis agents” (Bioorg Med Chem, 2023).
The source made the active and inactive calls. No cut-off for these calls is given here.

Columns and labels:
[1] = Cytotoxicity against human HT-29 cells assessed as reduction in cell viability; format: toxicity, cell-based
HT-29 [2] = test: Anti-necroptotic activity against TSZ induced necroptosis in human HT-29 cells preincubated for 12 hrs followed by TSZ addition by CellTiter-Glo luminescent cell viability assay; format: functional, cell-based
[3] = molecular target: T1, Receptor-interacting serine/threonine-protein kinase 1 (Homo sapiens, UniProt Q13546); test: Binding affinity to RIPK1 (unknown origin)
T1 sequence (Q13546 whole entry): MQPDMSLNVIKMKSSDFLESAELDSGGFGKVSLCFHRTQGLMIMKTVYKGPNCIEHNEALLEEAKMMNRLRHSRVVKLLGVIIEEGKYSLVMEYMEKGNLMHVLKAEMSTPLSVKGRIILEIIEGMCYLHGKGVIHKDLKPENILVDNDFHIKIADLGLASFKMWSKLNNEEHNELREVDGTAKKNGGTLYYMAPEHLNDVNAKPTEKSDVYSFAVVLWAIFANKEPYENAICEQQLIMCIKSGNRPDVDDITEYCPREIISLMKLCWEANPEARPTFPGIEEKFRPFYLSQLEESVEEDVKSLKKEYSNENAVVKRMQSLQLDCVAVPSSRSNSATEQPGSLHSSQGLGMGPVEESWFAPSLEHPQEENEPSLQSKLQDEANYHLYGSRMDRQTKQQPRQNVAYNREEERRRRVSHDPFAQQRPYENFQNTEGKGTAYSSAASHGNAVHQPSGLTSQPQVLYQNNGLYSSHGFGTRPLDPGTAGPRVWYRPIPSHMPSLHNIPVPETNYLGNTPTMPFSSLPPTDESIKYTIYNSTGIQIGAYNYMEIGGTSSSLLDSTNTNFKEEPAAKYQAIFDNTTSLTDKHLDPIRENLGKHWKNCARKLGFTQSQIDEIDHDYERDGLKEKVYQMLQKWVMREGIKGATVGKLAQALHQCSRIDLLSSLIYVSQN

Mus musculus [4] = test: Protection against mTNF-alpha induced SIRS in C57BL/6J mouse assessed as increase in survival rate at 20 mg/kg preincubated for 1 hr followed by mTNF-alpha addition measured upto 60 hrs; format: functional; settings: time <= 61 hrs
Mus musculus [5] = species on record: Mus musculus; test: Protection against TNF-induced SIRS in C57BL/6J mouse assessed as reduction in body temperature loss preincubated for 1 hr followed by mTNF-alpha addition measured after 6 hrs […]; format: functional, organism-based; settings: time 7.0 hrs
Mus musculus [6] = test: Protection against mTNF-alpha induced SIRS in C57BL/6J mouse assessed as increase in survival rate at 2.5 mg/kg preincubated for 1 hr followed by mTNF-alpha addition measured upto 60 hrs; format: functional; settings: time <= 61 hrs
[7] = molecular target: T2, Receptor-interacting serine/threonine-protein kinase 3 (Homo sapiens, UniProt Q9Y572); test: Binding affinity to RIPK3 (unknown origin)
Target sequence in this assay (Q9Y572 whole entry): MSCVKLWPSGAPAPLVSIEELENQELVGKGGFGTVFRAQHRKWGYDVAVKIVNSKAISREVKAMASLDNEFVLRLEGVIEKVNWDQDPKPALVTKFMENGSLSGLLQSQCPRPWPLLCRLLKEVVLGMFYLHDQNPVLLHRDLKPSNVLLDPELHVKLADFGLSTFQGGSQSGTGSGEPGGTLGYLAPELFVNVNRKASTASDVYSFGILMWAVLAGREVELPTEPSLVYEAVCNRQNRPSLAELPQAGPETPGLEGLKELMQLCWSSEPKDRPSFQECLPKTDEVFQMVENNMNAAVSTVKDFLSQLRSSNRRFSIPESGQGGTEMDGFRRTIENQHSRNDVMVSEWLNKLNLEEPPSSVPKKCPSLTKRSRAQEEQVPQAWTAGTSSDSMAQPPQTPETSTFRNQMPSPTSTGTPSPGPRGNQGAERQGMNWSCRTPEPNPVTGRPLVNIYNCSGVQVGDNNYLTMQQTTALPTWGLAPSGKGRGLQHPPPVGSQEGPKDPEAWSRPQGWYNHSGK

[8] = molecular target: T2, Receptor-interacting serine/threonine-protein kinase 3; settings: HT-29, dose 25-100 nM, time 6.0 hrs
Target sequence in this assay (Q9Y572 whole entry, looked up): as the sequence (Q9Y572 whole entry) above

[9] = molecular target: T2, Receptor-interacting serine/threonine-protein kinase 3; settings: HT-29, dose 100.0 nM, time 2-6 hrs
Target sequence in this assay (Q9Y572 whole entry, looked up): as the sequence (Q9Y572 whole entry) above
Description: Inhibition of RIPK3 phosphorylation in TSZ induced human HT-29 cells at 100 nM incubated for 2 to 6 hrs by immunoblotting analysis

[10] = molecular target: T3, Receptor-interacting serine/threonine-protein kinase 1 (Homo sapiens) (UniProt Q13546); test: Inhibition of RIPK1 phosphorylation in TSZ induced human HT-29 cells at 100 nM incubated for 2 to 6 hrs by immunoblotting analysis; format: cell-based; settings: time 2-6 hrs
T3 sequence (whole entry): T1 sequence (Q13546 whole entry)

Homo sapiens = species on record: Homo sapiens; test: Selectivity ratio of Kd for RIPK3 (unknown origin) to Kd for RIPK1 (unknown origin)
HT-29 [11] = test: Anti-necroptotic activity against TSZ induced necroptosis in human HT-29 cells incubated for 12 hrs; format: functional, cell-based
Mus musculus [12] = test: Protection against mTNF-alpha induced SIRS in C57BL/6J mouse assessed as increase in survival rate at 5 mg/kg preincubated for 1 hr followed by mTNF-alpha addition measured upto 60 hrs; format: functional; settings: time <= 61 hrs
[13] = molecular target: T4, Mixed lineage kinase domain-like protein (Homo sapiens) (UniProt Q8NB16); test: Inhibition of MLKL phosphorylation in TSZ induced human HT-29 cells incubated for 6 hrs by immunoblotting analysis; format: cell-based; settings: dose 25-100 nM
T4 sequence (whole entry): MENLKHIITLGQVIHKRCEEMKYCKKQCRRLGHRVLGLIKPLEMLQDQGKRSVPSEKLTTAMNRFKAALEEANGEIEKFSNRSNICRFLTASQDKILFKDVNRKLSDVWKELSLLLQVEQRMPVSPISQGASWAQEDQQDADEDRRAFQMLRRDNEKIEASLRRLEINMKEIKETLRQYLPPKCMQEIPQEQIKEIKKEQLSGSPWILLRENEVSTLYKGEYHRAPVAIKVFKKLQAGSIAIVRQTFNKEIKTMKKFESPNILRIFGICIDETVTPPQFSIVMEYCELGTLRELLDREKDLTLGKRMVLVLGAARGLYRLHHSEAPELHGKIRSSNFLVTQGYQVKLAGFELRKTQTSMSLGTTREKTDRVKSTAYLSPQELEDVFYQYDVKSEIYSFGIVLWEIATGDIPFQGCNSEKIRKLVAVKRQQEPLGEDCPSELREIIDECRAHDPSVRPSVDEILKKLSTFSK

HT-29 [14] = test: Anti-necroptotic activity against TCZ induced necroptosis in human HT-29 cells incubated for 16 hrs; format: functional, cell-based
Mus musculus [15] = test: Protection against mTNF-alpha induced SIRS in C57BL/6J mouse assessed as increase in survival rate at 10 mg/kg preincubated for 1 hr followed by mTNF-alpha addition measured upto 60 hrs; format: functional; settings: time <= 61 hrs
HT-29 [16] = test: Inhibition of TSZ induced necrosomes formation in human HT-29 cells at 100 nM incubated for 6 hrs by Western blotting analysis; format: functional, cell-based
[17] = molecular target: T3, Receptor-interacting serine/threonine-protein kinase 1 (Homo sapiens); test: Inhibition of RIPK1 phosphorylation in TSZ induced human HT-29 cells incubated for 6 hrs by immunoblotting analysis; format: cell-based; settings: dose 25-100 nM
U-937 = test: Anti-necroptotic activity against TSZ induced necroptosis in human U-937 cells preincubated with compound followed by TSZ addition for 12 hrs; format: functional, cell-based
[18] = molecular target: T4, Mixed lineage kinase domain-like protein (Homo sapiens); test: Inhibition of MLKL phosphorylation in TSZ induced human HT-29 cells at 100 nM incubated for 2 to 6 hrs by immunoblotting analysis; format: cell-based; settings: time 2-6 hrs

Structure (SMILES) | CC50 [1] [µM] | EC50 (HT-29 [2]) [µM] | further results
CN1C(=O)[C@@H](NC(=O)c2cc3cccc(-c4ccc(F)c(F)c4)c3[nH]2)COc2ccccc21 | > 100 | 0.129 | –
Cc1ccc(-c2cccc3cc(C(=O)N[C@H]4COc5ccccc5N(C)C4=O)[nH]c23)c(C)c1 | > 100 | 4.36 | –
Cc1ccc(C)c(-c2cccc3cc(C(=O)N[C@H]4COc5ccccc5N(C)C4=O)[nH]c23)c1 | > 100 | 2.06 | –
CN1C(=O)[C@@H](NC(=O)c2cc3cccc(-c4ccccc4F)c3[nH]2)COc2ccccc21 | > 100 | 0.0323 | Kd [3]: 0.19 µM
CN1C(=O)[C@@H](NC(=O)c2cc3cccc(-c4ccc(F)cc4)c3[nH]2)COc2ccccc21 | > 100 | 0.356 | –
CN1C(=O)[C@@H](NC(=O)c2cc3cccc(-c4ccccc4-c4ccccc4)c3[nH]2)COc2ccccc21 | > 100 | > 10 | –
CN1C(=O)[C@@H](NC(=O)c2cc3cccc(-c4ccc(F)cc4F)c3[nH]2)COc2ccccc21 | > 100 | 0.392 | Kd [3]: 0.2 µM
CN1C(=O)[C@@H](NC(=O)c2cc3cccc(-c4ccc(-c5ccccc5)cc4)c3[nH]2)COc2ccccc21 | > 100 | 0.438 | –
Cc1cccc(-c2cccc3cc(C(=O)N[C@H]4COc5ccccc5N(C)C4=O)[nH]c23)c1C | > 100 | 0.302 | –
CN1C(=O)[C@@H](NC(=O)c2n[nH]c(Cc3ccccc3)n2)COc2ccccc21 [GSK2982772] | – | 0.0041 | Activity (Mus musculus [4]): 90%; Activity (Mus musculus [5]): Active
Cc1ccc(-c2cccc3cc(C(=O)N[C@H]4COc5ccccc5N(C)C4=O)[nH]c23)cc1C | > 100 | 1.67 | –
COc1ccccc1-c1cccc2cc(C(=O)N[C@H]3COc4ccccc4N(C)C3=O)[nH]c12 | > 100 | 0.775 | –
CN1C(=O)[C@@H](NC(=O)c2cc3cccc(-c4ccc5ccccc5c4)c3[nH]2)COc2ccccc21 | > 100 | 18.1 | –
Cc1ccc(-c2cccc3cc(C(=O)N[C@H]4COc5ccccc5N(C)C4=O)[nH]c23)cc1 | > 100 | 1.25 | –
Cc1cccc(-c2cccc3cc(C(=O)N[C@H]4COc5ccccc5N(C)C4=O)[nH]c23)c1 | > 100 | 0.271 | –
CN1C(=O)[C@@H](NC(=O)c2cc3cccc(-c4c(F)cccc4F)c3[nH]2)COc2ccccc21 | > 100 | 2.17 | –
CN1C(=O)[C@@H](NC(=O)c2cc3cccc(-c4ccccc4)c3[nH]2)COc2ccccc21 | > 100 | 0.0162 | Activity (Mus musculus [6]): 75%; Kd [7]: 2.4 µM; inhibition [8]: Dose-Dependent Effect; inhibition [9]: Active; inhibition [10]: Active; Selectivity ratio (Homo sapiens): 8; Activity (HT-29 [11]): Dose-Dependent Effect; Activity (Mus musculus [12]): 100%; Activity (Mus musculus [5]): Active; inhibition [13]: Dose-Dependent Effect; Activity (HT-29 [14]): Active; Activity (Mus musculus [15]): 100%; inhibition (HT-29 [16]): Active; inhibition [17]: Dose-Dependent Effect; Activity (U-937): Dose-Dependent Effect; Kd [3]: 0.19 µM; inhibition [18]: Active
Cc1ccccc1-c1cccc2cc(C(=O)N[C@H]3COc4ccccc4N(C)C3=O)[nH]c12 | > 100 | 0.0454 | Kd [3]: 0.27 µM
COc1ccc(-c2cccc3cc(C(=O)N[C@H]4COc5ccccc5N(C)C4=O)[nH]c23)cc1 | > 100 | 3.8 | –
CN1C(=O)[C@@H](NC(=O)c2cc3cccc(-c4cccc(F)c4)c3[nH]2)COc2ccccc21 | > 100 | 0.096 | –
CN1C(=O)[C@@H](NC(=O)c2cc3cccc(-c4ccccc4C(F)(F)F)c3[nH]2)COc2ccccc21 | > 100 | 0.163 | –
CN1C(=O)[C@@H](NC(=O)c2cc3cccc(-c4cccc(C(F)(F)F)c4)c3[nH]2)COc2ccccc21 | > 100 | 2.06 | –
Cc1cccc(C)c1-c1cccc2cc(C(=O)N[C@H]3COc4ccccc4N(C)C3=O)[nH]c12 | > 100 | 1.48 | –
CN1C(=O)[C@@H](NC(=O)c2cc3cccc(-c4cccc(F)c4F)c3[nH]2)COc2ccccc21 | > 100 | 0.145 | Kd [3]: 0.26 µM
CN1C(=O)[C@@H](NC(=O)c2cc3cccc(-c4cccc(-c5ccccc5)c4)c3[nH]2)COc2ccccc21 | > 100 | > 10 | –
CN1C(=O)[C@@H](NC(=O)c2nnc(Cc3ccccc3)[nH]2)COc2ccccc21 [GSK2982772] | > 50 | – | –
CN1C(=O)[C@@H](NC(=O)c2cc3cccc(-c4cc(F)ccc4F)c3[nH]2)COc2ccccc21 | > 100 | 0.0885 | Kd [3]: 0.19 µM
CN1C(=O)[C@@H](NC(=O)c2cc3cccc(-c4cccc5ccccc45)c3[nH]2)COc2ccccc21 | > 100 | 0.956 | –
CN1C(=O)[C@@H](NC(=O)c2cc3cccc(-c4ccc(C(F)(F)F)cc4)c3[nH]2)COc2ccccc21 | > 100 | 3.85 | –
COc1cccc(-c2cccc3cc(C(=O)N[C@H]4COc5ccccc5N(C)C4=O)[nH]c23)c1 | > 100 | 0.128 | –
